Test systems include DLD-1 colon; DMS 273 small cell lung; HOP-18 NSCLC; KM20L2 colon; LXFL 529 NSCLC; SNB-78 CNS; DMS 114 small cell lung.
Assay in all cases: NCI anticancer screen, dose series, 48 h

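These data come from cells grown in 96-well plates and exposed to compound for 48 hours at five concentrations. Abbreviation: GI50, concentration required for 50% inhibition of growth. TGI: total growth inhibition.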 Where only a bound is given, the exact number is not on record here.

Take `CC[O-].CC[O-].O=C1C(c2ccccc2)=C([O-])c2ccccc21.O=C1C(c2ccccc2)=C([O-])c2ccccc21.[Ti+4]`: the GI50 with DLD-1 colon, with DMS 273 small cell lung, in the test on HOP-18 NSCLC, in the test with KM20L2 colon, with LXFL 529 NSCLC and in the test on SNB-78 CNS was above 100 µM in each case. The GI50 with DMS 114 small cell lung is above 100 µM. Moreover, the TGI in the test with DLD-1 colon, in the test on DMS 273 small cell lung, in the test with HOP-18 NSCLC, in the test on KM20L2 colon, in the test with LXFL 529 NSCLC and in the test with SNB-78 CNS was above 100 µM in each case. In the test on DMS 114 small cell lung, this compound registered a TGI above 100 µM.

For `COC(=O)C12CC3CC(C1)CC(C(=O)OC)(C3)C2`, the TGI in the test with DLD-1 colon, in the test with DMS 273 small cell lung, in the test on HOP-18 NSCLC, with KM20L2 colon, with LXFL 529 NSCLC and in the test with SNB-78 CNS was above 100 µM throughout. Also, in the test on DMS 114 small cell lung, the TGI was above 100 µM.

Take `COC(=O)C12C3C4C5C3(C#N)C1C5(C(=O)OC)C42C(=O)N(C(C)C)C(C)C` (centres undefined): the TGI was above 70.6 µM in the test with DLD-1 colon; above 59.3 µM in the test on DMS 273 small cell lung; above 100 µM in the test on HOP-18 NSCLC; above 100 µM with KM20L2 colon; above 100 µM in the test on LXFL 529 NSCLC; above 100 µM with SNB-78 CNS. This compound registered a TGI in the test on DMS 114 small cell lung above 100 µM.

With `CCOC(=O)C1=C(Nc2ccc(Cl)cc2Cl)OC/C1=N\NS(=O)(=O)c1ccc(C)cc1`, the TGI in the test on DLD-1 colon, in the test with DMS 273 small cell lung, in the test on HOP-18 NSCLC, in the test with KM20L2 colon, in the test on LXFL 529 NSCLC and in the test on SNB-78 CNS was above 100 µM in each case. The compound also showed a TGI in the test on DMS 114 small cell lung above 100 µM.

With `C[C@]12CC[C@H](OCCC#N)CC1=CC[C@@H]1C2CC[C@]2(C)/C(=N/OCCC#N)CCC12` (some centres undefined), the TGI with DLD-1 colon was above 100 µM; in the test on DMS 273 small cell lung it was above 100 µM; with HOP-18 NSCLC, above 100 µM; in the test with KM20L2 colon, above 100 µM; in the test with LXFL 529 NSCLC, above 100 µM; with SNB-78 CNS, above 90 µM. This compound showed a TGI with DMS 114 small cell lung above 100 µM.

`O=c1ccnc2c1ccc1[nH]cccc12`: the TGI with DLD-1 colon, in the test on DMS 273 small cell lung, in the test on HOP-18 NSCLC, with KM20L2 colon, in the test on LXFL 529 NSCLC and in the test on SNB-78 CNS was above 100 µM each time. In the test with DMS 114 small cell lung, this compound gave a TGI above 100 µM.
